In patent US20220008382A1, “ALCOHOL ANTIDOTE” (Evanium Healthcare GmbH, priority 2018, published 2022):
Values after ≈ are worked out from the molar mass of the structure shown.

Experiments:
[1] = system: GABAA receptor α+/β− interface; conditions: cited from earlier work
[2] = system: GABAA receptor β+/α− interface at the amino acid β-265ASN; conditions: cited from earlier work
[3] = Solubility of the solid dispersion with Eudragit E in 0.1 N HCl (simulated gastric juices); type: physicochemical; conditions: simulated gastric fluid, thermodynamic from solid, saturated solution, room temperature, HPLC, read-out: Solubility of taxifolin
Description: The last most important point for comparing the production methods to one another is solubility in simulated gastric juices. That is, the solubility of the complex directly influences bioavailability, because only dissolved active ingredients can pass the epithelial cells of the GI tract
10 mg taxifolin (Lavitol® 98.9% purity) was placed in a vial with 5 ml 0.1 N HCl to make a saturated solution and shaken for 60 minutes. The solution was then transferred into a vial by means of a syringe with an HPLC filter (0.22 μm) and then measured.
Saturated solutions of the samples in 0.1 molar HCl solution were prepared at room temperature. The solution was then transferred to a vial by means of a syringe with an HPLC filter (0.22 μm), appropriately diluted and the taxifolin concentration of the solution was determined by HLPC.

[4] = Saturation solubility in dist. water (HPLC), β-CD complexes; type: physicochemical; conditions: distilled water, thermodynamic from solid, saturated solution shaken 60 minutes, HPLC DAD-254 nm, read-out: Solubility of taxifolin
Description: Saturation Solubility in Dist. Water (HPLC)
The last most important point in terms of comparing the production methods to one another is solubility in distilled water. The solubility of the complex has a direct influence on bioavailability, because only dissolved complexes/active ingredients can pass the epithelial cells of the GI tract. Moreover, the samples were examined for rel. substances in order to identify possible degradation of the active ingredient during the production process.
10 mg taxifolin (Lavitol® 98.9% purity) was placed in a vial with 5 ml dist. water to make a saturated solution and shaken for 60 minutes. The solution was then transferred to a vial using a syringe with an HPLC filter (0.22 μm) and then measured undiluted (HPLC DAD-254 nm).
500 mg of the sample was placed in a vial with 6 ml dist. water to make a saturated solution and shaken for 60 minutes. The solution was then transferred to a vial using a syringe with an HPLC filter (0.22 μm), diluted 10:1 with distilled water to prevent oversaturation, and then measured (HPLC DAD-254 nm). The taxifolin concentration was calculated in mg/ml based on the peak area, taking into account the dilution.

[5] = Solubility of taxifolin in organic solvents; type: physicochemical
[6] = Dissolution behaviour, USP apparatus II (paddle); type: physicochemical; conditions: 100 rpm; for Mean release: N=2, 500 ml 0.1 N HCl
Description: In order to check the dissolution behaviour of the final formulations, dissolution studies of the cyclodextrin and the Eudragit formulation against pure taxifolin were carried out.
Method: In order to determine the dissolution behaviour, the usual procedure according to pharmacopoeia was chosen.
USP apparatus II (paddle); 100 rpm; medium: 500 ml 0.1 N HCl; 2 vessels per sample (N=2); 7 sampling points: 0 min, 5 min, 10 min, 15 min, 20 min, 30 min, 60 min; weighed in: formulation as a powder corresponding to 100 mg taxifolin; detection by HPLC
The following formulations were tested: • taxifolin (Ametis Lavitol®, 98.8% purity) • Eudragit® E CSE 2:1 (solid dispersion formulation) • FD β (cyclodextrin formulation)

[7] = in vivo; cited from earlier work
[8] = Saturation solubility in dist. water (HPLC), γ-CD complexes; type: physicochemical; conditions: thermodynamic from solid, saturated solution shaken 60 minutes, HPLC DAD-254 nm
Method: 10 mg taxifolin (Lavitol® 98.9% purity) was placed in a vial with 5 ml dist. water to make a saturated solution and shaken for 60 minutes. The solution was then transferred to a vial by means of a syringe with an HPLC filter (0.22 μm) and then measured (HPLC DAD-254 nm).
300 mg of the sample was placed in a vial with 5 ml dist. water to produce a saturated solution and shaken for 60 minutes. The solution was then transferred to a vial using a syringe with an HPLC filter (0.22 μm) and then measured undiluted (HPLC DAD-254 nm).

## CCO [ethanol]
[1]
  Concentration from which the high-affinity binding site is occupied: ≥ 3 mM
[2]
  Concentration from which the low-affinity binding site is occupied: ≥ 50 mM

## O=C1c2c(O)cc(O)cc2O[C@H](c2ccc(O)c(O)c2)[C@H]1O [Taxifolin reference, (+)taxifolin]
[3]
  solubility at 60 min: 693 µg/mL (≈ 2280 µM)
[4]
  solubility at 60 min: 750 µg/mL (≈ 2460 µM)
[5]
  Solubility in acetone and ethyl acetate: very soluble
  Solubility in diethyl ether: insoluble
[6]; 5 min
  Mean release: 29%
[6]; 5 min, vessel 1, 500 ml 0.1 N HCl
  Release: 28.2%
[6]; 5 min, vessel 2, 500 ml 0.1 N HCl
  Release: 29.2%
[6]; 10 min
  Mean release: 46%
[6]; 10 min, vessel 1, 500 ml 0.1 N HCl
  Release: 46.4%
[6]; 10 min, vessel 2, 500 ml 0.1 N HCl
  Release: 44.8%
[6]; 15 min, listed as taxifolin
  Mean release: 60%
[6]; 15 min, listed as taxifolin (reference)
  Mean release: 60%
[6]; 15 min, vessel 1, 500 ml 0.1 N HCl
  Release: 61.1%
[6]; 15 min, vessel 2, 500 ml 0.1 N HCl
  Release: 58.7%
[6]; 20 min
  Mean release: 69%
[6]; 20 min, vessel 1, 500 ml 0.1 N HCl
  Release: 70.4%
[6]; 20 min, vessel 2, 500 ml 0.1 N HCl
  Release: 67.5%
[6]; 30 min
  Mean release: 79%
[6]; 30 min, vessel 1, 500 ml 0.1 N HCl
  Release: 80.8%
[6]; 30 min, vessel 2, 500 ml 0.1 N HCl
  Release: 77.4%
[6]; 60 min
  Mean release: 92%
[6]; 60 min, vessel 1, 500 ml 0.1 N HCl
  Release: 90.8%
[6]; 60 min, vessel 2, 500 ml 0.1 N HCl
  Release: 93.1%
[7]
  NOAEL level: 1500 mg/kg
[8]
  solubility at 60 min: 750 µg/mL (≈ 2460 µM)
